From patent publication US7691985B2, “Skeletal-targeted radiation to treat bone-associated pathologies” (priority 1999, dated 2010)

Assays:
[1] = Pharmacokinetics and patient specific dosimetry of ^166Ho-DOTMP in patients with breast cancer metastatic to bone (Example 6); format: in vivo, human
Method: Eight patients with breast cancer metastatic only to bone initially received a 30 mCi dose of ^166Ho-DOTMP for diagnostic purposes. Pharmacokinetics were assessed via whole body counting, gamma camera imaging, and urine and blood assays for the first 48 hours following injection. Patients were followed with autologous stem cell transplantation for rescue from hematologic toxicity.
Therapy doses were calculated based upon prescribed dose to the red bone marrow using the Medical Internal Radiation Dose (MIRD) technique and percentage localization in the skeleton. Appropriate S-values were provided by Oak Ridge National Laboratory. The desired target dose was 22 Gy to the red marrow calculated by the above technique for each individual. The average red marrow dose was calculated to be 1.97±0.92 cGy/mCi (range: 0.98 cGy/mCi to 3.19 cGy/mCi). Three patients proceeded to therapy, two were disqualified due to low uptake in the skeleton (≦30%; revised qualification: 15%), and three were disqualified for other reasons unrelated to the ^166Ho-DOTMP treatment.

[2] = Phase II multicenter dosimetry study of ^166Ho-DOTMP: safety, biodistribution, pharmacokinetics (Example 9); format: in vivo, human
Method: A 12-patient, Phase II multicenter study was performed to further evaluate the safety, biodistribution and pharmacokinetics of ^166Ho-DOTMP. Each patient was to receive two 30 mCi tracer doses of ^166Ho-DOTMP followed, in eligible patients (those with adequate skeletal uptake parameters), by a therapy dose calculated to deliver 25 Gy to the red marrow. All patients in this study received CBI.

multiple myeloma = test: Single patient: 40 Gy ^166Ho-DOTMP, melphalan 140 mg/m^2 (Example 12); format: in vivo, human
Method: The patient, a person with an original diagnosis of multiple myeloma, was administered a therapeutic dose of ^166Ho-DOTMP of 3875 mCi which was calculated to deliver 40 Gy to the marrow. Post ^166Ho-DOTMP, the patient received a dose of 140 mg/m^2 of melphalan (I.V.). The patients stem cells were reinfused three days after the melphalan and were followed by G-CSF for ten days.

[3] = Stability of ^166Ho-DOTMP with and without stabilizer: radiochemical purity by ITLC, CEC, HPLC (Example 15); format: physicochemical; conditions: ascorbic acid about 35-75 mg/mL, ambient conditions, unfrozen
Method: Samples of ^166Ho-DOTMP were prepared according to the procedure in Example 1 using ascorbic acid, 55 mg/mL, as the stabilizer. Identical samples were prepared without ascorbic acid. The solutions were analyzed for radiochemical purity after 1 hour, 6 hours, 10 hours, 24 hours, and 48 hours, using Instant Thin Layer Chromatography (ILTC), Cation Exchange Chromatography (CEC) and High Performance Liquid Chromatography (HPLC).

[4] = 3875 mCi (40 Gy to marrow), melphalan 140 mg/m^2, one patient

For `O=P([O-])(O)CN1CCN(CP(=O)(O)O)CCN(CP(=O)([O-])O)CCN(CP(=O)(O)O)CC1.[166Ho]` [^166Ho-DOTMP], the effective skeletal half-life ([1]; 30 mCi diagnostic dose) was 19.9 ± 2.5 h, the “average percentage uptake in the skeleton” value ([1]; 30 mCi diagnostic dose, eight patients) was 28±12% and the “material present in the urine” value ([1]; 6 hours post injection) was “Approximately 50%”. For the same compound, the “injected dose remaining in whole blood” value ([1]; 24 hours post injection) was “a small percentage”, the “whole blood clearance early T1/2” value ([1]; biphasic clearance) was 3 ± 2.4 min and the “whole blood clearance late T1/2” value ([1]; biphasic clearance) was 11 ± 4 h. For the same compound, the “average red marrow dose” value ([1]; calculated by MIRD technique) was 1.97±0.92 cGy/mCi, the toxicity ([1]; therapy, target 22 Gy to red marrow, three patients) was “Other than severe hematological suppression, no toxicity was noted” and the route of excretion ([2]; gamma camera counting and urine PK) was “no route of excretion other than the urine”. The “localization of retained activity” value ([2]; gamma camera images) was “retained activity was localized in the skeleton”, the “hypocalcemia or associated cardiac abnormalities” value ([2]; serum calcium, ECG and Holter monitoring) was “no clinical observations of hypocalcemia or associated cardiac abnormalities were noted” and the acute toxicities ([2]; therapy dose 25 Gy to red marrow) was “no unexpected acute toxicities were noted”. For the same compound, the “time to engraftment after stem cell transplant” value ([2]; therapy dose calculated to deliver 25 Gy to red marrow, all patients) was at most 15 days, the “days post stem cell transplant to neutrophil engraftment (ANC >500)” value (multiple myeloma; [4]) was “Nine” and the “days post transplant to platelet engraftment (>20,000)” value (multiple myeloma; [4]) was “fourteen”. The response (multiple myeloma; twenty-eight days post transplant, one patient) was “complete remission” and the “time the solution is stable, e.g., therapeutically useful” value [3] was at least 72 h.
